Assay results taken from patent US20170172945A1, “METHODS OF TREATING BREAST CANCER” (Mitchell Woods Pharmaceuticals, Inc., priority 2014, published 2017).

Columns and labels:
Format in all cases: cell-based, Human
MCF-7 cells [1] = assay: [3H]-thymidine incorporation assay in MCF-7 cells; settings: serum-starved, 24 hours
Experimental: (§1) Cells were seeded in 12-well plates at approximately 50,000 cells/well and incubated at 37° C. After 24 hours, the wells were rinsed with PBS and replaced with serum-free medium containing the appropriate concentration of the test compounds. After another 24-hour incubation at 37° C., 1 μCi of [^3H]-thymidine was added to each well and incubated at 37° C. for 16 hours. […] The lysate was then mixed with 3 mL of liquid scintillation cocktail (Beckman Coulter, Inc., Brea, Calif.), and radioactivity was measured by liquid scintillation counting using Beckman Coulter LS6000IC Scintillation Counter. Data are shown as CPM incorporated compared to the control cells.
(§2) CF-7 cells and MDA-MB-231 cells were seeded out on E-Plates and allowed to settle. Cells were stimulated with MNF. Cellular proliferation and adherence was measured every 15 minutes using xCELLigence RTCA station. The serum-starved cells were incubated with various amounts of (R,R′)-MNF concentrations for 24 hours and the levels of [3H]thymidine incorporation were measured.

MDA-MB-231 cells [2] = assay: [3H]-thymidine incorporation assay in MDA-MB-231 cells; settings: serum-starved, 24 hours
Experimental: as §1, §2

MDA-MB-231 cells [3] = assay: cell cycle analysis in MDA-MB-231 cells
Experimental: (§3) Cell cycle distributions were performed by flow cytometry on propidium iodide-stained nuclei prepared by the NEVI technique. DNA histograms of at least 10,000 cells acquired on a Becton-Dickinson FACScanto II (BD Biosciences, San Jose, Calif.) were deconvoluted using the Multicycle program (Phoenix Flow Systems) for estimates of the percentage of cells in the G0/1, S, and G2+M phases of the cell cycle. Debris and doublets were removed from the analysis by software algorithms.

Cyclin D1 [4] = assay: expression of Cyclin D1 in MDA-MB-231 cells
Experimental: (§4) Cells were lysed with RIPA buffer containing EGTA and EDTA (Boston BioProducts, Ashland, Mass.). The lysis buffer was mixed with a protease inhibitor cocktail (Sigma-Aldrich). Protein concentrations were measured using the bicinchoninic acid reagent (Thermo-Pierce Biotechnology, Inc., Rockford, Ill.). Proteins (20 μg/well) were separated on 4-12% precast gels (Invitrogen, Carlsbad, Calif.) using SDS-polyacrylamide gel electrophoresis under reducing conditions and were electrophoretically transferred onto polyvinylidene fluoride membrane (Invitrogen). Western blots were performed according to standard methods. The visualization of immunoreactive bands was performed using the ECL Plus Western Blotting Detection System (GE Healthcare, NJ) and their quantification was done by volume densitometry using Image J software and normalization to β-actin. The primary antibody for β2-APv was obtained from Enzo Life Sciences, Inc. (Cat. # AD 1-905-742-100, Farmingdale, N.Y.); rabbit anti-phospho-Akt (Ser-473), phospho-ERK1/2, total Akt and total ERK2 were from Cell Signaling Technology (Beverly, Mass.), and anti-P-actin was from Abeam (Cambridge, Mass.). The antibodies were used at a dilution recommended by the manufacturer.
(§5) The effect of MNF on expression of the cell cycle regulatory proteins Cyclin D1 and Cyclin B1 in MCF-7 cells and MDA-MB-231 cells was evaluated. […]

Cyclin B1 = assay: expression of Cyclin B1 in MCF-7 cells
Experimental: as §4, §5

Cyclin D1 [5] = assay: expression of Cyclin D1 in MCF-7 cells
Experimental: as §4, §5

[6] = tested on: Multidrug resistance protein (Mdr); assay: expression of Multidrug resistance protein (Mdr) in MCF-7 cells
Text: As shown therein, MNF reduces the expression of Multidrug resistance protein (Mdr) in MCF-7 cells.

MCF-7 cells [7] = assay: cell cycle analysis in MCF-7 cells
Experimental: as §3

MDA-MB-231 cells [8] = assay: proliferation of MDA-MB-231 cells (xCELLigence RTCA)
Experimental: as §2, with “measured. MNF inhibited the incorporation of radiolabelled thymidine in both CF-7 cells and MDA-MB-231 cells.” for “measured.”

ERK [9] = assay: basal phosphorylation levels of ERK in MDA-MB-231 cells; settings: serum starved for 3 hours, compound for 15 minutes
Experimental: (§6) Levels of ERK1/2 and its phosphorylated forms were determined using PathScan ELISA kits according to manufacturer's protocol (Perkin Elmer Alphascreen Surefire ERK1/2 assay kit, cat no. TGRES500).
(§7) (R,R′)-MNF decreased basal phosphorylation levels of ERK. MCF-7 and MDA-MB-231 cells were serum starved for 3 hours and subjected to compound of interest or vehicle for 15 minutes. The levels of phosphorylated ERK were determined in MNF-treated MCF-7 and MDA-MB-231 cells.

MCF-7 cells [10] = assay: proliferation of MCF-7 cells (xCELLigence RTCA)
Experimental: as §2, with “measured. MNF inhibited the incorporation of radiolabelled thymidine in both CF-7 cells and MDA-MB-231 cells.” for “measured.”

ERK [11] = assay: basal phosphorylation levels of ERK in MCF-7 cells; settings: serum starved for 3 hours, compound for 15 minutes
Experimental: as §6, §7

Compound	blocking of the inhibitory effect of MNF on [3H]thymidine incorporation (MCF-7 cells [1]; with MNF)	blocking of the inhibitory effect of MNF on [3H]thymidine incorporation (MDA-MB-231 cells [2]; with MNF)	arrest of the cell cycle (MDA-MB-231 cells [3])	expression of Cyclin D1 (Cyclin D1 [4])	levels of [3H]thymidine incorporation (MCF-7 cells [1])	expression of Cyclin B1 (Cyclin B1)	expression of Cyclin D1 (Cyclin D1 [5])	expression of Multidrug resistance protein (Mdr) [6]	arrest of the cell cycle (MCF-7 cells [7])	growth of cancer cells (MDA-MB-231 cells [8]; MDA-MB-231 cells)	proliferation (MDA-MB-231 cells [8]; MDA-MB-231 cells)	sensitivity to MNF compared with MCF-7 cancer cells (MDA-MB-231 cells [8]; MDA-MB-231 cells vs MCF-7 cells)	basal phosphorylation levels of ERK (ERK [9])	growth of cancer cells (MCF-7 cells [10])	proliferation (MCF-7 cells [10])	basal phosphorylation levels of ERK (ERK [11])	levels of [3H]thymidine incorporation (MDA-MB-231 cells [2])
Cc1ccc(OCC(O)C(C)NC(C)C)c2c1CCC2 (centres unmarked) [ICI 118,551, 3-(isopropylamino)-1-[(7-methyl-4-indanyl)oxy]butan-2-ol, reference compound]	not	not															
COc1ccc(C[C@@H](C)NC[C@H](O)c2cc(O)cc(O)c2)c2ccccc12 [MNF, (R,R′)-4′-methoxy-1-naphthylfenoterol]			arrested at G1/S phase	reduced	inhibited	reduced	unchanged	reduces	G2/M phase arrested cell population was increased	inhibit	inhibit	significantly more sensitive	decreased	inhibit	inhibit	decreased	inhibited
